The numbers were not newly measured in PMC10703426, “New characterization of dihydroergotamine receptor pharmacology in the context of migraine: utilization of a β-arrestin recruitment assay” (Frontiers in Neurology, 2023), which cites them from elsewhere.

The data set relates to 5-HT1D. Also on record: method as in doi:10.1186/1129-2377-14-S1-P75. Particulars: cited from earlier work.

On to `CNS(=O)(=O)Cc1ccc2[nH]cc(CCN(C)C)c2c1` [sumatriptan succinate], for which the dissociation half-life was 5.4 min.
